The record followed here is patent US20260027221A1, “Targeted Pyrrolobenzodiazapine Conjugates” (BeOne Medicines I GmbH, priority 2023, published 2026).

For orientation: EC50 means the concentration giving half of the maximal effect. Lower therefore signals a more potent agent.

Experiment [1] has as its system A375 cells. Put plainly: Compounds cellular killing in A375 cancer line (Cell Titer-Glo, 6 days). Particulars: Homo sapiens, A-375, 144 h, 6 days incubation, cell viability by Cell Titer-Glo. The format is cell-based, human. The protocol: A375 (ATCC, CRL-1619). […] The base medium for A375 is DMEM, high glucose, GlutaMAX™ Supplement (Gibco, 10566024). To make the complete growth medium, fetal bovine serum was added to the base mediumat a final concentration of 10% (Gibco, 10099-141C). The cell line was grown in a humidified 5% CO2 atmosphere at 37° C., and was regularly tested for the presence of mycoplasma with MycoAlert™ PLUS Mycoplasma Detection Kit (Lonza, LT07-710).
(§1) Payload direct killing by compounds 1-1 to 1-22 was assessed in A375 and Calu-6 cancer cell lines. Cells were seeded at 1E3/well (A375) 2E3/well (Calu-6) into 96-well plates (Greiner: 655090), 100 μL/well, and incubated at 37° C., 5% CO2, overnight. Fresh growth medium was added containing varying concentrations of compounds, 50 μL/well, and incubated at 37° C., 5% CO2, for 6 days. The cell viability detected by Cell Titer-Glo (Promega, G7573), 70 μL/well. The plates were allowed to incubate at room temperature for 10 minutes to stabilize the luminescent signal. The plates were analyzed with a microplate reader.
In general terms: Cellular ATP, detected with luciferase, serves as a proxy for viable cell number.

In experiment [2] the test system is Calu-6 cells. Put plainly: Compounds cellular killing in Calu-6 cancer line (Cell Titer-Glo, 6 days). The format is cell-based, human. Particulars: Homo sapiens, Calu-6, 144 h, 6 days incubation, cell viability by Cell Titer-Glo. How it is done:
Calu-6 (ATCC, HTB-56). […] The base medium for Calu-6 is Eagle's Minimum Essential Medium (ATCC, 30-2003). To make the complete growth medium, fetal bovine serum was added to the base mediumat a final concentration of 10% (Gibco, 10099-141C). The cell line was grown in a humidified 5% CO2 atmosphere at 37° C., and was regularly tested for the presence of mycoplasma with MycoAlert™ PLUS Mycoplasma Detection Kit (Lonza, LT07-710).
as §1

Structures are written as SMILES.

As for `COc1cc2c(cc1OCCCCCOc1cc3c(cc1OC)C(=O)N1CC4(CC4)C[C@H]1C=N3)N=C[C@@H]1Cc3ccccc3CN1C2=O` [Compound 1-1, (S)-2-methoxy-3-((5-(((S)-7-methoxy-5-oxo-5,11a-dihydro-1H,3H-spiro[benzo[e]pyrrolo[1,2-a][1,4]diazepine-2,1′-cyclopropan]-8-yl)oxy)pentyl)oxy)-7,12-dihydrobenzo[5,6][1,4]diazepino[1,2-b]isoquinolin-14(6aH)-one], in experiment [1], the EC50 is 0.005 nM and the Emax amounted to 99.8%. Besides, in experiment [2], the EC50 came out at 0.002 nM and the Emax turned out to be 99.5%.

`COc1cc2c(cc1OCCCCCOc1cc3c(cc1OC)C(=O)N1Cc4ccccc4C[C@H]1CN3)N=C[C@@H]1CC3(CC3)CN1C2=O` [Compound 1-2, (S)-2-methoxy-3-((5-(((S)-7-methoxy-5-oxo-5,11a-dihydro-1H,3H-spiro[benzo[e]pyrrolo[1,2-a][1,4]diazepine-2,1′-cyclopropan]-8-yl)oxy)pentyl)oxy)-6,6a,7,12-tetrahydrobenzo[5,6][1,4]diazepino[1,2-b]isoquinolin-14(5H)-one]: in experiment [1], the EC50 was 0.118 nM and the Emax is 98%. In experiment [2], this compound displayed an EC50 of 0.052 nM and an Emax of 97.6%.

In experiment [1], `COc1cc2c(cc1OCCCCCOc1cc3c(cc1OC)C(=O)N1CC4(CC4)C[C@H]1CN3)N=C[C@@H]1Cc3ccccc3CN1C2=O` [Compound 1-3, (S)-2-methoxy-3-((5-(((S)-7-methoxy-5-oxo-5,10,11,11a-tetrahydro-1H,3H-spiro[benzo[e]pyrrolo[1,2-a][1,4]diazepine-2,1′-cyclopropan]-8-yl)oxy)pentyl)oxy)-7,12-dihydrobenzo[5,6][1,4]diazepino[1,2-b]isoquinolin-14(6aH)-one] displayed an EC50 of 0.002 nM and an Emax of 99.9%. Also, in experiment [2], the response was half-maximal at 0.001 nM (EC50) and the Emax turned out to be 99.3%.

`COc1cc2c(cc1OCCCCCOc1cc3c(cc1OC)C(=O)N1CC4(CC4)C[C@H]1CN3)NC[C@@H]1Cc3ccccc3CN1C2=O` [Compound 1-4, (S)-2-methoxy-3-((5-(((S)-7-methoxy-5-oxo-5,10,11,11a-tetrahydro-1H,3H-spiro[benzo[e]pyrrolo[1,2-a][1,4]diazepine-2,1′-cyclopropan]-8-yl)oxy)pentyl)oxy)-6,6a,7,12-tetrahydrobenzo[5,6][1,4]diazepino[1,2-b]isoquinolin-14(5H)-one]: in experiment [1], the EC50 was determined as 0.14 nM and the Emax was 90.6%. In experiment [2], this compound had an EC50 of 0.077 nM and an Emax of 94.9%.

In experiment [1], `COc1cc2c(cc1OCCOCCOc1cc3c(cc1OC)C(=O)N1CC4(CC4)C[C@H]1C=N3)N=C[C@@H]1Cc3ccccc3CN1C2=O` [Compound 1-5, (S)-2-methoxy-3-(2-(2-(((S)-7-methoxy-5-oxo-5,11a-dihydro-1H,3H-spiro[benzo[e]pyrrolo[1,2-a][1,4]diazepine-2,1′-cyclopropan]-8-yl)oxy)ethoxy)ethoxy)-7,12-dihydrobenzo[5,6][1,4]diazepino[1,2-b]isoquinolin-14(6aH)-one] came in with an EC50 greater than 1 nM and an Emax of 39.2%. Besides, in experiment [2], the midpoint of the response, the EC50, lay at 0.165 nM and the Emax was found to be 90.8%.

In experiment [1], `COc1ccc(C2=CN3C(=O)c4cc(OC)c(OCCCCCOc5cc6c(cc5OC)C(=O)N5CCC7(CC7)C[C@H]5C=N6)cc4NC[C@@H]3C2)cc1` [Compound 1-6, (S)-2-methoxy-3-((5-(((S)-7-methoxy-2-(4-methoxyphenyl)-5-oxo-5,10,11,11a-tetrahydro-1H-benzo[e]pyrrolo[1,2-a][1,4]diazepin-8-yl)oxy)pentyl)oxy)-6a,7,9,10-tetrahydro-12H-spiro[benzo[e]pyrido[1,2-a][1,4]diazepine-8,1′-cyclopropan]-12-one] came in with an EC50 of 0.067 nM and an Emax of 97.5%. In experiment [2], this compound had a half-maximal effective concentration (EC50) of 0.033 nM and an Emax of 97.6%.
